The text below walks through data of patent US8791123B2, “Substituted pyrazolo[1,5-a]pyrimidine compounds as Trk kinase inhibitors” (Array Biopharma, Inc., priority 2009, dated 2014).

Holding throughout (format): biochemical
One assay has as its target Human Jak2 kinase domain (Homo sapiens (Human), UniProt O60674). Put plainly: Jak2 Inhibition Assay (Omnia kinase assay). Particulars: for IC50: 500 μM ATP; for inhibition at 1 µM: 1000 nM test compound.
The target in another assay is Human Tyk2 kinase domain (Homo sapiens (Human), UniProt P29597). Nature of the assay: Tyk2 Inhibition Assay (Omnia kinase assay). Conditions: Table 2; for IC50: 500 μM ATP. As to the method: (§1) The assays described in Examples C, D, E and F for the determination of JAK1, JAK2, JAK3 and Tyk2 kinase activity, respectively, utilized the Omnia® Kinase fluorescence peptide substrate-based technology (Invitrogen). […] The reactions were therefore read at excitation 360 nm and emission was measured at 485 nm every 50 seconds for 45 minutes using a PerkinElmer EnVision Multilabel Plate Reader.
Sequence of Human Tyk2 kinase domain (P29597 886-1187): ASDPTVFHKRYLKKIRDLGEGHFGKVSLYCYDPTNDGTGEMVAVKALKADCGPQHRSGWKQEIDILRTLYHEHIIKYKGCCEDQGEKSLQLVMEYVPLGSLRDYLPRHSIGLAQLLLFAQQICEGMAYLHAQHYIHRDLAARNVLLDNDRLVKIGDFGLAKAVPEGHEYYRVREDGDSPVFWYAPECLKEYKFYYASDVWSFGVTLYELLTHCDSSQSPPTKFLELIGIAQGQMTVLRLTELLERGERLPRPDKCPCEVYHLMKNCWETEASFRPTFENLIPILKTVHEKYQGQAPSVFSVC
(§2) The final buffer conditions for each of the JAK1, JAK2, JAK3 and Tyk2 assays were as follows: 25 mM HEPES, pH 7.4, 10 mM MgCl2, 0.01% Triton X-100 and 1 mM DTT.
(§3) Compounds were prepared at 50× the final concentration in DMSO by conducting 3-fold serial dilutions from a 500-μM or 1000-μM intermediate dilution to give a 10-point dosing curve having a high dose of 10 or 20 μM. Two-μL aliquots of these were transferred to a fresh plate for a ten-fold intermediate dilution with assay buffer. Five-μL aliquots of the diluted compounds were then transferred to 20-μL of assay mixtures described in Examples C, D, E and F for a final concentration of DMSO of 2%. A standard or reference compound was typically included on each assay plate to validate that plate. For each plate, percent of control (POC) values were calculated for each well according to the following equation:
(§4) [formula] • where • Xmax=Average Uninhibited Controls • Xmin=Average Background IC50's were estimated from the POC's using a standard 4-parameter logistic model:
(§5) [formula] • where • A=Minimum Y (Bottom Asymptote) • B=Maximum Y (Top Asymptote) • C=EC50 • D=Slope Factor • X=Compound Concentration (nM) • Y=POC
(§6) The IC50 is defined as the concentration of inhibitor at which the POC equals 50 for the fitted curve.
Compounds of Formula I were screened for their ability to inhibit Tyk2 using the general enzyme inhibition assay method, in which the assay mixture contained 500 μM ATP, 8 μM Omnia® Y12 peptide (Catalog # IVGN KPZ3121C; Invitrogen Corporation, Carlsbad, Calif.) and 1 nM Tyk2 in a total volume of 20 μL. Human Tyk2 kinase domain, comprising amino acids 886 to 1187 with 10 additional histidine residues (histidine tag) on the carboxy terminus, was expressed and purified from bacculovirus in-house at Array BioPharma Inc. (Boulder, Colo.). The histidine tag was cleaved after purification using standard conditions.

The target of assay [1] is GST-tagged human Jak3 kinase domain (Homo sapiens (Human), UniProt P52333). Nature of the assay: Jak3 Inhibition Assay (Omnia kinase assay). Particulars: Table 2; for IC50: 500 μM ATP. As to the method:
as §1, §2, §3, §4, §5, §6
Compounds of Formula I were screened for their ability to inhibit Jak3 using the general enzyme inhibition assay method, in which the assay mixture contained 500 μM ATP, 10 μM Omnia® Y7 peptide (Catalog # IVGN KNZ3071C, Invitrogen Corporation, Carlsbad, Calif.) and 1.5 nM Jak3 in a total volume of 20 μL. GST-tagged human Jak3 kinase domain comprising amino acids 781-1124 was purchased from Invitrogen Corporation, Carlsbad, Calif. (catalog # IVGN PV3855).

The target of assay [2] is GST-tagged human Jak1 kinase domain (Homo sapiens (Human), UniProt P23458). Put plainly: Jak1 Inhibition Assay (Omnia kinase assay). Particulars: Table 2; for IC50: 500 μM ATP. Here is the method:
as §1, §2, §3, §4, §5, §6
Compounds of Formula I were screened for their ability to inhibit Jak1 using the general enzyme inhibition assay method, in which the assay mixture contained 500 μM ATP, 8 μM Omnia® Y12 peptide (Catalog # IVGN KPZ3121C; Invitrogen Corporation, Carlsbad, Calif.) and 5 nM Jak1 in a total volume of 20 μL. […] (catalog # IVGN PV4774).

Assay [3] addresses TrkA (histidine-tagged recombinant human TrkA, cytoplasmic domain) (Homo sapiens (Human), UniProt P04629). Put plainly: TrkA ELISA Assay. An outline of the steps: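 His-tagged human TrkA cytoplasmic domain phosphorylated poly(Glu,Ala,Tyr 6:3:1) coated at 0.025 mg/mL, with inhibitors present. Phosphotyrosine was detected with HRP-conjugated PY20 antibody (0.2 μg/mL) and TMB, read as absorbance at 450 nm after phosphoric acid stop.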
A general note: ELISA stands for enzyme-linked immunosorbent assay.

Setting [4] is: Table 1, >1000 nM when >50% inhibition not observed at 1000 nM, read-out: Jak2 Enzyme IC50.
The mark [5] stands for this setting: Table 1, ELISA, 500 μM ATP, read-out: TrkA Enzyme IC50.

Like-named read-outs stand apart in the source and are kept apart here. Some results are limits rather than exact numbers.

Sequence of GST-tagged human Jak1 kinase domain (P23458 866-1154): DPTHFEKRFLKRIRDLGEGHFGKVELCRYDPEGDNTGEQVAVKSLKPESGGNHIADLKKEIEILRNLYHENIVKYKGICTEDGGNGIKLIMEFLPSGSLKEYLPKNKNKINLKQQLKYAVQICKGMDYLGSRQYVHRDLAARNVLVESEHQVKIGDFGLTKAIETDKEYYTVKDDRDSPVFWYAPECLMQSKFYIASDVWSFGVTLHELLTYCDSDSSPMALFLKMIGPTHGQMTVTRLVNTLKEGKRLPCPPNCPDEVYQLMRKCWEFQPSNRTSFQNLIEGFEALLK
Sequence of TrkA (histidine-tagged recombinant human TrkA, cytoplasmic domain) (P04629 440-796): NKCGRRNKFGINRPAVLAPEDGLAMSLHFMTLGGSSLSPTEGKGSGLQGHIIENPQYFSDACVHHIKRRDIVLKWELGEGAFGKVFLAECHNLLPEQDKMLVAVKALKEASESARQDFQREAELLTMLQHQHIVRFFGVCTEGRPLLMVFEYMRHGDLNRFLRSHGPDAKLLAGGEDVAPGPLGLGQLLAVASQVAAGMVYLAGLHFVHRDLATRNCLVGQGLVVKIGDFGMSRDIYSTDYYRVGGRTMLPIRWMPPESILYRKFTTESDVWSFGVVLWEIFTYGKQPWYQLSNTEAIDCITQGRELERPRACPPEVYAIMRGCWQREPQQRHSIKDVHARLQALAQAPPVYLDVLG
Sequence of GST-tagged human Jak3 kinase domain (P52333 781-1124): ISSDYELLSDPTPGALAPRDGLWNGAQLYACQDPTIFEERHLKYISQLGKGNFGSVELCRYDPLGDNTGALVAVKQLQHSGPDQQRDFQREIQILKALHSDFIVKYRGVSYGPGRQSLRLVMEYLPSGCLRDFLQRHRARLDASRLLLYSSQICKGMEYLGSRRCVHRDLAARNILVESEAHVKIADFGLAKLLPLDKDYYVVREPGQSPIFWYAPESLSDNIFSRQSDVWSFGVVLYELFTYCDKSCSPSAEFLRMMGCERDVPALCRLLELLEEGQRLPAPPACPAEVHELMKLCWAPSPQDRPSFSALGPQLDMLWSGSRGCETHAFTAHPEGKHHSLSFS
Sequence of Human Jak2 kinase domain (O60674 808-1132): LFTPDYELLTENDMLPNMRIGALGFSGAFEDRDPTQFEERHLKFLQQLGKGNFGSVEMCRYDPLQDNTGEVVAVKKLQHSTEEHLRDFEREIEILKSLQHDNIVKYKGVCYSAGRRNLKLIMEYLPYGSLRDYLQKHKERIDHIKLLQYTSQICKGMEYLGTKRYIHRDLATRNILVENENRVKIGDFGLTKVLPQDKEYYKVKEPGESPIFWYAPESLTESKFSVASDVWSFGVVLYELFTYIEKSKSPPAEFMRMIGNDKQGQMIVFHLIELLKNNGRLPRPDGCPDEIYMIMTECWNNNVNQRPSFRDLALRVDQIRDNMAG

A word on the IC50: it is the midpoint of a concentration-inhibition curve. For `O=C(NC1CC1)c1cnn2ccc(N3CCC[C@@H]3c3cncc(F)c3)nc12` [Example 52, (R)—N-cyclopropyl-5-(2-(5-fluoropyridin-3-yl)pyrrolidin-1-yl)pyrazolo[1,5-a]pyrimidine-3-carboxamide], the IC50 at Human Jak2 kinase domain (setting [4]) is greater than 1000 nM; on Human Jak2 kinase domain (Table 2, read-out: Jak2 IC50), greater than 1000 nM; against Human Tyk2 kinase domain, greater than 1000 nM; in assay [1], greater than 1000 nM; in assay [2] it was greater than 1000 nM; in assay [3] (setting [5]) it was 7.4 nM. Further, the IC50 in assay [3] (Table 2, read-out: TrkA IC50) is 7.4 nM.
Consider `NC(=O)c1cnn2ccc(N3CCC[C@@H]3c3cc(F)ccc3F)nc12` [Example 30, (R)-5-(2-(2,5-difluorophenyl)pyrrolidin-1-yl)pyrazolo[1,5-a]pyrimidine-3-carboxamide], for which the IC50 is greater than 1000 nM at Human Jak2 kinase domain (setting [4]); greater than 1000 nM at Human Jak2 kinase domain (Table 2, read-out: Jak2 IC50); greater than 1000 nM against Human Tyk2 kinase domain; greater than 1000 nM in assay [1]; greater than 1000 nM in assay [2]; 1.95 nM in assay [3] (setting [5]). In assay [3] (Table 2, read-out: TrkA IC50), the IC50 amounted to 1.9 nM.
The term inhibition denotes the share of the control response that was lost under treatment. In the case of `Cc1ncc(F)cc1[C@H]1CCCN1c1ccn2ncc(C(=O)NC3CC3)c2n1` (stereo in doubt) [Example 181, N-cyclopropyl-5-(2-(5-fluoro-2-methylpyridin-3-yl)pyrrolidin-1-yl)pyrazolo[1,5-a]pyrimidine-3-carboxamide], the IC50 on Human Jak2 kinase domain (setting [4]) was greater than 1000 nM; on Human Jak2 kinase domain (Table 2, read-out: Jak2 IC50), greater than 1000 nM; at Human Tyk2 kinase domain it was greater than 1000 nM; in assay [1], greater than 1000 nM; in assay [2], greater than 1000 nM; in assay [3] (setting [5]), 17.1 nM. The 50% inhibitory concentration (IC50) in assay [3] (Table 2, read-out: TrkA IC50) is 29.8 nM. Besides, the inhibition at 1 µM at Human Jak2 kinase domain (read-out: Jak2 (% inhibition at 1000 nM), Table 2) stood at 18.1%; on Human Jak2 kinase domain (read-out: Jak2 Enzyme (% inhibition at 1000 nM), Table 1) it was 5.2%; on Human Tyk2 kinase domain (read-out: Tyk2 (% inhibition at 1000 nM), 1000 nM test compound), 10.7%; in assay [1] (read-out: Jak3 (% inhibition at 1000 nM), 1000 nM test compound), 8.9%; in assay [2] (read-out: Jak1 (% inhibition at 1000 nM), 1000 nM test compound), 12.8%.
As to `C[C@@H](NC(=O)c1cnn2ccc(N3CCC[C@@H]3c3cncc(F)c3)nc12)C1CC1` [Example 123, N-((R)-1-cyclopropylethyl)-5-((R)-2-(5-fluoropyridin-3-yl)pyrrolidin-1-yl)pyrazolo[1,5-a]pyrimidine-3-carboxamide], the IC50 at Human Jak2 kinase domain (setting [4]) was greater than 1000 nM; at Human Jak2 kinase domain (Table 2, read-out: Jak2 IC50), greater than 1000 nM; at Human Tyk2 kinase domain it was greater than 1000 nM; in assay [1], greater than 1000 nM; in assay [2] it was greater than 1000 nM; in assay [3] (setting [5]) it was 6.4 nM. In addition, the IC50 in assay [3] (Table 2, read-out: TrkA IC50) was determined as 6.3 nM.
